Experimental data taken from patent US8933195B2, “Histone deacetylase inhibitors and synthetic method thereof and use thereof in manufacture of medicaments” (Nanjing Yoko Biomedical R & D Ltd., priority 2011, dated 2015).
Where two headings read alike, the source gives them in different places. One block for each compound: values may come before it.

Experiments:
HDAC1 = HDAC1 (Homo sapiens, UniProt Q13547); test: Measurement of biochemical activities of HDAC (fluorescently-labeled acetylated lysine substrate)
Method: (§1) 1. Measurement principles: the measurement of biochemical activities of compounds is determined according to the degree of the compounds inhibiting the deacylation of HDAC enzyme. After the fluorescently-labeled substrate containing acetylated lysine side chain reacts with the HDAC enzyme, the fluorogenic substrate is deacetylated. After the deacetylated fluorescently-labeled substrate is cracked by the enzyme, a fluorescent substance is released. The fluorescent substance generates emitting light of 460 nm under the excitation of light of 360 nm.
(§2) 2. Detailed steps: the substrate of HDAC is diluted to […] (the reaction concentration is […]) with a reaction buffer. HDAC enzyme is diluted to a proper concentration. The compounds to be detected in different concentrations are added. The mixture reacts for 30 min at 37. Then the developer with the same volume and twice concentration of the substrate is added into the mixture. The mixture is incubated for 15 min at room temperature. Finally, the reading is measured with a micro plate scanner. The excitation light is 360 nm, the emitting light is 460 nm, and the data is processed with Prime 4 software.

HDAC7 = target: T1, HDAC7 (Homo sapiens, UniProt Q8WUI4); test: as above
T1 sequence (Q8WUI4 1-952): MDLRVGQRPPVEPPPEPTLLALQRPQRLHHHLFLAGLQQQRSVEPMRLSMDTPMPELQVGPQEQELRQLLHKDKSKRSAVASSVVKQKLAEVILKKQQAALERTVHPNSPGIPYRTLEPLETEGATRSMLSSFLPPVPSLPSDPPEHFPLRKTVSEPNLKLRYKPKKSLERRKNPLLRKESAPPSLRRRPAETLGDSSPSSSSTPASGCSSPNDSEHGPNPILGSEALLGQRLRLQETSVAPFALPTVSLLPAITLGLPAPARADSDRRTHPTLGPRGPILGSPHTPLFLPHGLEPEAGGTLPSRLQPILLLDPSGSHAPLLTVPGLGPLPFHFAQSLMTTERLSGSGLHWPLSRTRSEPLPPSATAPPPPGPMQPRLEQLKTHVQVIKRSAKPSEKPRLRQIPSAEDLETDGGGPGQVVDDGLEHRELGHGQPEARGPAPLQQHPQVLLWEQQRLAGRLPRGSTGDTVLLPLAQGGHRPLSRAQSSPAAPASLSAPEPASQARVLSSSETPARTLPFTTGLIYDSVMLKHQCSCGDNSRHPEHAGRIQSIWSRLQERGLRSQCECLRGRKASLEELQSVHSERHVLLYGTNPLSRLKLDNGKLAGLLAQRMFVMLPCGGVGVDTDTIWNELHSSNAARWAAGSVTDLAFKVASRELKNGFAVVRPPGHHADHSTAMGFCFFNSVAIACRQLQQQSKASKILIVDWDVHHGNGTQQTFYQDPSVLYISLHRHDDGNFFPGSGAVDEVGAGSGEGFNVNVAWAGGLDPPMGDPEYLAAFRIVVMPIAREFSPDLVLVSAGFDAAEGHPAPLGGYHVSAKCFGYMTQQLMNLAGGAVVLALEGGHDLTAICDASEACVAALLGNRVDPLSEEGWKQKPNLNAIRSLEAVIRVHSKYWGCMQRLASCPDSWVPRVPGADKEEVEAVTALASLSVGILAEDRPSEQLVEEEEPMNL
Method: as §1, §2

[1] = test system: A549 (human lung cancer cells); test: MTT cancer cell growth inhibition; format: cell-based; conditions: 72 h
Excerpt: (§3) 1. Experimental principles: the inhibition of cancer cell growth with compounds is detected by an MTT method. The principle of the MTT method is as follows: yellow thiazolyl blue may penetrate through cell membranes and enter into cells, succinate dehydrogenase in living cell mitochondria may reduce exogenous MTT into water-insoluble ianthinus acicular Formazan crystals which deposit in the cells, the crystals can be dissolved with dimethyl sulfoxide (DMSO), the optical density of the crystals is detected with an enzyme-linked immunometric meter at the wavelength of 490 nm/570 nm, and the number of cells can be indirectly reflected.
(§4) 2. Experimental materials: the used cancer cell lines are Hela (human cervical cancer cells), MCF-7 (human breast cancer cells), BGC-823 (human gastric cancer cells), A549 (human lung cancer cells), HT1080 (human fibrosarcoma cells), A431 (human epidermal squamous cell carcinoma cells), HUVEC (human umbilical vein endothelial cells), DU145 (human prostate cancer cells), K562 (human leukemia cells), U937 (human leukemia cells), Pac-1 (human pancreatic cancer cells), and MOLT-4 (human acute lymphoblastic leukemia cells), which are cultured with a DMEM+10% FBS culture medium or a 1640+10% FBS culture medium, respectively.
(§5) Experimental groups: 190 μl cell suspension+10 μl pharmaceuticals in different concentrations (the final concentration is 10^−5-10^−10M)
(§6) Negative control group: 190 μl cell suspension+10 μl 2% DMSO (the final concentration of DMSO is 0.1%)
(§7) a) Cells are inoculated on a 96-pore plate, with 1500 cells and 190 μl for each hole, and cultured overnight in a 5% CO2 incubator at 37.
(§8) b) 10 μl of different pharmaceuticals is added into each hole the next day, with the final concentration of the pharmaceuticals of 10^−5-10^−10M and three parallel holes, and incubated for 72 h in a 5% CO2 incubator at 37.
(§9) c) 20 μl of 5 mg/mL MTT is added into each hole, and incubated for 4 h in a 5% CO2 incubator at 37.
(§10) d) Supernatant is removed. 100 μl of DMSO is added into each hole and vibrated.
(§11) e) The reading is 570 nm. The cell survival rate is calculated.

[2] = test system: BGC-823 (human gastric cancer cells); test: MTT cancer cell growth inhibition; format: cell-based; conditions: 72 h, read-out: GI50 BGC823
Excerpt: as §3, §4, §5, §6, §7, §8, §9, §10, §11

[3] = test system: DU145 (human prostate cancer cells); test: MTT cancer cell growth inhibition; format: cell-based; conditions: DU-145, 72 h
Excerpt: as §3, §4, §5, §6, §7, §8, §9, §10, §11

[4] = test system: HT1080 (human fibrosarcoma cells); test: MTT cancer cell growth inhibition; format: cell-based; conditions: HT-1080, 72 h
Excerpt: as §3, §4, §5, §6, §7, §8, §9, §10, §11

[5] = test system: Hela (human cervical cancer cells); test: MTT cancer cell growth inhibition; format: cell-based; conditions: 72 h
Excerpt: as §3, §4, §5, §6, §7, §8, §9, §10, §11

[6] = test system: MCF-7 (human breast cancer cells); test: MTT cancer cell growth inhibition; format: cell-based; conditions: MCF7, 72 h
Excerpt: as §3, §4, §5, §6, §7, §8, §9, §10, §11

[7] = test system: MOLT-4 (human acute lymphoblastic leukemia cells); test: MTT cancer cell growth inhibition; format: cell-based; conditions: 72 h
Excerpt: as §3, §4, §5, §6, §7, §8, §9, §10, §11

PANC-1 = test: MTT cancer cell growth inhibition; format: cell-based; conditions: Homo sapiens, 72 h
Excerpt: as §3, §4, §5, §6, §7, §8, §9, §10, §11

[8] = test system: U937 (human leukemia cells); test: MTT cancer cell growth inhibition; format: cell-based; conditions: U-937, 72 h
Excerpt: as §3, §4, §5, §6, §7, §8, §9, §10, §11

Incap = test: MTT cancer cell growth inhibition; format: cell-based; conditions: 72 h

HDAC1, sequence (Q13547 whole entry, species assumed): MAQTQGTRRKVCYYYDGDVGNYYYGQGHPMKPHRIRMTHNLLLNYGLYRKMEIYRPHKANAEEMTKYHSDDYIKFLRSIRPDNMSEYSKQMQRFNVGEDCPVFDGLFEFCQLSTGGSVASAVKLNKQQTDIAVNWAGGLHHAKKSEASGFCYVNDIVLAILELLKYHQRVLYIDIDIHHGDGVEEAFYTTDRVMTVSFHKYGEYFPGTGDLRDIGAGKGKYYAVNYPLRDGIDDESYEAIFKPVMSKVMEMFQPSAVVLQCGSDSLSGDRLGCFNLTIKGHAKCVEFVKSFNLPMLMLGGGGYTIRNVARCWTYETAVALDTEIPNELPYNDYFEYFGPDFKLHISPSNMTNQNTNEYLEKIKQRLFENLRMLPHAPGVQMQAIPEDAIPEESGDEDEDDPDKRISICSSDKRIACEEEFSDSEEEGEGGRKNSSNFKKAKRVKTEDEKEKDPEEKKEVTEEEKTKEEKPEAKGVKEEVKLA

SMILES: C/C=C1\NC(=O)c2coc(n2)CNC(=O)C[C@@H](/C=C/CCSC(=O)CCCCCCC)OC(=O)[C@H](C(C)C)NC1=O [Compound 2-1]
- IC50 (HDAC1; read-out: IC50 HDAC1): < 0.1 µM
- IC50 HDAC7 (HDAC7): no activity
- GI50 [1]: 0.9 µM
- GI50 [2]: 5 µM
- GI50 [3]: 0.05 µM
- GI50 [4]: 4.1 µM
- GI50 [5]: 0.2 µM
- GI50 [6]: 0.5 µM
- GI50 [7]: 0.1 µM
- GI50 (PANC-1): 2.06 µM
- GI50 [8]: 1.3 µM
- GI50 (Incap): 2.01 µM

SMILES: C/C=C1\NC(=O)c2csc(n2)CNC(=O)C[C@@H](/C=C/CCSC(=O)CCCCCCC)OC(=O)[C@H](CCSC)NC1=O [Compound 1-10]
- IC50 (HDAC1; read-out: IC50 HDAC1): < 0.1 µM
- IC50 HDAC7 (HDAC7): no activity
- GI50 [1]: 0.1 µM
- GI50 [2]: 0.2 µM
- GI50 [3]: 0.01 µM
- GI50 [4]: 0.1 µM
- GI50 [5]: 0.1 µM
- GI50 [6]: 0.001 µM
- GI50 [7]: 0.02 µM
- GI50 (PANC-1): 1.3 µM
- GI50 [8]: 0.02 µM
- GI50 (Incap): 0.08 µM

SMILES: C/C=C1\NC(=O)c2csc(n2)CNC(=O)C[C@@H](/C=C/CCSC(=O)CCCCCCC)OC(=O)[C@H](CSCC)NC1=O [Compound 1-12]
- IC50 (HDAC1; read-out: IC50 HDAC1): < 0.1 µM
- IC50 HDAC7 (HDAC7): no activity
- GI50 [1]: 1.2 µM
- GI50 [2]: 0.06 µM
- GI50 [3]: 0.1 µM
- GI50 [4]: 1 µM
- GI50 [5]: 0.9 µM
- GI50 [6]: 0.8 µM
- GI50 [7]: 0.1 µM
- GI50 (PANC-1): 6 µM
- GI50 [8]: 0.1 µM
- GI50 (Incap): 0.3 µM

SMILES: C/C=C1\NC(=O)c2csc(n2)[C@H](C(C)C)NC(=O)C[C@@H](/C=C/CCSC(=O)CCCCCCC)OC(=O)[C@H](C(C)C)NC1=O [Compound 4-1]
- IC50 (HDAC1): < 10 µM
- IC50 HDAC7 (HDAC7): no activity
- GI50 [1]: 0.54 µM
- GI50 [2]: 0.23 µM
- GI50 [3]: 1.65 µM
- GI50 [4]: 0.85 µM
- GI50 [5]: 0.26 µM
- GI50 [6]: 0.13 µM
- GI50 [7]: 4.02 µM
- GI50 (PANC-1): 1.34 µM
- GI50 [8]: 1.56 µM
- GI50 (Incap): 1.03 µM

The remaining lines, values ahead:

- IC50 (HDAC1; read-out: IC50 HDAC1): < 10 µM
- IC50 HDAC7 (HDAC7): no activity
- GI50 [1]: 4.6 µM
- GI50 [2]: 2.55 µM
- GI50 [3]: 0.42 µM
- GI50 [4]: 1.33 µM
- GI50 [5]: 0.5 µM
- GI50 [6]: 0.69 µM
- GI50 [7]: 2.65 µM
- GI50 (PANC-1): 1.25 µM
- GI50 [8]: 6.35 µM
- GI50 (Incap): 0.63 µM
SMILES: C/C=C1\NC(=O)c2csc(n2)CNC(=O)C[C@@H](/C=C/CCSC(=O)Cc2ccccc2)OC(=O)[C@H](C(C)C)NC1=O [Compound 6-4]

- IC50 (HDAC1; read-out: IC50 HDAC1): < 10 µM
- IC50 HDAC7 (HDAC7): no activity
- GI50 [1]: 41 µM
- GI50 [2]: 5 µM
- GI50 [3]: 13.6 µM
- GI50 [4]: 25 µM
- GI50 [5]: 45 µM
- GI50 [6]: 56.6 µM
- GI50 [7]: 3.64 µM
- GI50 (PANC-1): 0.89 µM
- GI50 [8]: 10.1 µM
- GI50 (Incap): 12 µM
SMILES: C/C=C1\NC(=O)c2csc(n2)CNC(=O)C[C@@H](/C=C/CCSC(=O)CCCCCCCCCCCC)OC(=O)[C@H](C(C)C)NC1=O [Compound 6-3]

- IC50 (HDAC1; read-out: IC50 HDAC1): < 10 µM
- IC50 HDAC7 (HDAC7): no activity
- GI50 [1]: 4.66 µM
- GI50 [2]: 7.12 µM
- GI50 [3]: 0.14 µM
- GI50 [4]: 3.03 µM
- GI50 [5]: 1.06 µM
- GI50 [6]: 2.55 µM
- GI50 [7]: 0.03 µM
- GI50 (PANC-1): 0.01 µM
- GI50 [8]: 0.65 µM
- GI50 (Incap): 1.02 µM
SMILES: C/C=C1\NC(=O)c2csc(n2)[C@H](Cc2ccccc2)NC(=O)C[C@@H](/C=C/CCSC(=O)CCCCCCC)OC(=O)[C@H](C(C)C)NC1=O [Compound 4-3]

- IC50 (HDAC1; read-out: IC50 HDAC1): < 0.1 µM
- IC50 HDAC7 (HDAC7): no activity
- GI50 [1]: 25.1 µM
- GI50 [2]: 2.12 µM
- GI50 [3]: 4.02 µM
- GI50 [4]: 0.03 µM
- GI50 [5]: 1.23 µM
- GI50 [6]: 0.15 µM
- GI50 [7]: 2 µM
- GI50 (PANC-1): 1.03 µM
- GI50 [8]: 5.01 µM
- GI50 (Incap): 1.23 µM
SMILES: C/C=C1\NC(=O)c2csc(n2)[C@H](C)NC(=O)C[C@@H](/C=C/CCSC(=O)CCCCCCC)OC(=O)[C@H](C(C)C)NC1=O [Compound 4-2]

- IC50 (HDAC1; read-out: IC50 HDAC1): < 10 µM
- IC50 HDAC7 (HDAC7): no activity
- GI50 [1]: 21.3 µM
- GI50 [2]: 2.1 µM
- GI50 [3]: 0.65 µM
- GI50 [4]: 19.6 µM
- GI50 [5]: 3.05 µM
- GI50 [6]: 3.65 µM
- GI50 [7]: 0.01 µM
- GI50 (PANC-1): 0.65 µM
- GI50 [8]: 0.34 µM
- GI50 (Incap): 73.5 µM
SMILES: C/C=C1\NC(=O)c2csc(n2)CNC(=O)C[C@@H](/C=C/CCSC(=O)CCCCCCC)OC(=O)[C@H](C)N(C)C1=O [Compound 5-1]
